Measured values taken from PMC6010129, “Evaluation of sulphonamide derivatives acting as inhibitors of human carbonic anhydrase isoforms I, II and Mycobacterium tuberculosisβ-class enzyme Rv3273” (Journal of Enzyme Inhibition and Medicinal Chemistry, 2018).

Key:
[1] = molecular target: T1, mtCA 3 (Mycobacterium tuberculosis, UniProt P96878); experiment: biochemical; parameters: stopped-flow CO2 hydration assay, phenol red absorbance at 557 nm, 15 min pre-incubation, Ki by Cheng-Prusoff
T1 construct: beta-class carbonic anhydrase
T1 sequence (P96878 entry or part of it): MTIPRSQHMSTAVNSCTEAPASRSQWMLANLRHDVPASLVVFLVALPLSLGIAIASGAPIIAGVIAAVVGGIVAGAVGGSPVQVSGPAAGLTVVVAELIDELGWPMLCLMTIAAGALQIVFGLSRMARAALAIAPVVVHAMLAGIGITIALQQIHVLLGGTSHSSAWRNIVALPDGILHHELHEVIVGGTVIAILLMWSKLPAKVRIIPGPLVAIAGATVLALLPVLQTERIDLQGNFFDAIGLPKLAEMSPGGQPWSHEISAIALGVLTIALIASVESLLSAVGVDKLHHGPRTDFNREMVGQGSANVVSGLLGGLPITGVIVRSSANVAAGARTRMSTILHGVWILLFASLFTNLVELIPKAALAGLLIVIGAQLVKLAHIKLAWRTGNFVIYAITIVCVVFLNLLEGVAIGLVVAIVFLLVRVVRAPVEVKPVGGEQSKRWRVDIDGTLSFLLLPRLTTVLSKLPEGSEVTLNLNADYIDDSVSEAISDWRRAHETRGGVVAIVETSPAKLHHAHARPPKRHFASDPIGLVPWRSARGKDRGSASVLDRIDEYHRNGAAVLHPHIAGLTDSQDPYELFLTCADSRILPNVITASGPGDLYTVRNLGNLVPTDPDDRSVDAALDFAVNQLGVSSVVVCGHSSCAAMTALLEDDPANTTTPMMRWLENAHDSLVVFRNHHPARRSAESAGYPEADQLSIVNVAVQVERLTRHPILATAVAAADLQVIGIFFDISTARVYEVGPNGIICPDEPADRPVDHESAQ
Protocol: An Sx.18Mv-R Applied Photophysics (Oxford, UK) stopped-flow instrument has been used to assay the catalytic activity of various CA isozymes for CO2 hydration reaction. Phenol red (at a concentration of 0.2 mM) was used as indicator, working at the absorbance maximum of 557 nm, with 10 mM Hepes (pH 7.5) or 10 mM Tris (pH 8.5) as buffers, and 0.1 M Na2SO4 (for maintaining constant ionic strength, which is not inhibitory against these enzymes), following the CA-catalysed CO2 hydration reaction for a period of 10 s at 25 °C. The CO2 concentrations ranged from 1.7 to 17 mM for the determination of the kinetic parameters and […]. For each inhibitor at least six traces of the initial 5–10% of the reaction have been used for determining the initial rate. The uncatalysed rates were determined in the same manner and subtracted from the total observed rates. Stock solutions of inhibitors (10 mM) were prepared in distilled-deionised […] to 1 nM using the assay buffer. Inhibitor and enzyme solutions were pre-incubated together for 15 min (standard assay at room temperature) prior to assay, in order to allow for the formation of the enzyme–inhibitor complex. The inhibition constant (KI), was obtained by considering the classical Michaelis–Menten equation and the Cheng-Prusoff algorithm by using non-linear least squares fitting as reported earlier. The compounds 5 and 6 reported here were investigated as inhibitors of three CAs involved in crucial physiologic processes and known to act as drug targets, i.e. the human (h) isoforms hCA I and II (belonging to the α-CA class) and the bacterial enzyme mtCA3 from Mycobacterium tuberculosis (a β-class CA) (Table 3). Acetazolamide (AAZ), a clinically used sulphonamide has been employed as standard inhibitor in the assay.

[2] = molecular target: T2, hCA II (Homo sapiens, UniProt P00918); experiment: stopped-flow CO2 hydrase assay; assay type: biochemical
T2 construct: gene CA2; cytosolic isoform
Source text: stopped-flow CO2 hydrase assay on hCA II

[3] = molecular target: T3, hCA I (Homo sapiens, UniProt P00915); experiment: stopped-flow CO2 hydrase assay; assay type: biochemical
T3 construct: gene CA1; cytosolic isoform
T3 sequence (P00915 2-261): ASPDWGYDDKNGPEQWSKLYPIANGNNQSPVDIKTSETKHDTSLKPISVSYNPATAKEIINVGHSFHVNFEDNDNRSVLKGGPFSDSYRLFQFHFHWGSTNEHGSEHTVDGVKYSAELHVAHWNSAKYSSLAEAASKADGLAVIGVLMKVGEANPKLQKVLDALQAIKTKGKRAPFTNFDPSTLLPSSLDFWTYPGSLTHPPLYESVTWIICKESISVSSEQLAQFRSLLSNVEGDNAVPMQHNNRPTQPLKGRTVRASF
Source text: stopped-flow CO2 hydrase assay on hCA I

Structure (SMILES) | Ki [1] [nM] | Ki [2] [nM] | Ki [3] [nM]
COc1cc(/C=N/NC(=O)CNc2ccc(S(N)(=O)=O)cc2)cc(OC)c1OC [6i, 4-((2-Oxo-2-(2-(3,4,5-trimethoxybenzylidene) hydrazinyl)ethyl)amino) benzenesulphonamide] | 216 | 446 | 890
COc1cccc(C=NNC(=O)CNc2ccc(S(N)(=O)=O)cc2)c1OC [6j, 4-((2-(2-(2,3-Dimethoxybenzylidene)hydrazinyl)-2-oxoethyl)amino)benzenesulphonamide] | 232 | 240 | 785
